Patent US12319652B2, “Salts and solid forms of (R)-1-(5-methoxy-1H-indol-1-yl)-N,N-dimethylpropan-2-amine” (priority 2021, dated 2025)

Experiments:
[1] = Dynamic vapor sorption (DVS); format: physicochemical; details: for DVS isotherm type / hygroscopicity: 0 to 90 to 0% RH
Experimental: There are two main methods to use, one is by time where the equilibration is given by a fixed time, i.e., 1 hour per step and is appropriate for an unknown phase. The second, is by mass per time unit (dm/dt) of 0.002%/min; that is when the difference in weight is less than 0.002%, the instrument moves onto the next step. For unknown hygroscopicity, the method by time is indicated because it gives an idea of water affinity without wasting much time. Ideally the analyses are repeated using the mass equilibration method to confirm. By experience for hygroscopic samples, the analysis can continue for days. For non-hygroscopic samples the difference between the two methods may not be significant.
Consequently, amorphous batch 1 was analyzed by the fixed time method and once compound 1 fumarate crystalline polymorphic Form A was generated the analyses was repeated as mass per unit time equilibrated @dm/dt ([…]) and is given below (refer to FIG. 12).
(§1) The moisture sorption properties of the feed API were analysed by DVS Intrinsic instrument (Surface Measurement System). Approximately 20 to 50 mg of API was weighed onto an aluminium pan and loaded into the instrument equilibrated at 25° C. The sample was equilibrated under a dry atmosphere (0% relative humidity) for 60 minutes, before increasing the humidity from 0% to 30% at 5%4 step increment and from 30% to 90% at 10% step increment. A desorption cycle was also applied from 90% to 30% (10% step decrement) and from 30% to 0% (5% step decrement). A rate of change in mass per time unit (dm/dt) of 0.002%/min was set as the equilibrium parameter. Kinetic and isotherm graphs were calculated.
Specimens were equilibrated at 0% RH for 60 min, prior to DVS analyses (stepped increment % RH up to 90% RH and stepped decrement % RH down to 0% RH.
as §1, with “5%” for “5%4”

[2] = Solubility determinations in SIF buffers (FaSSIF, FeSSIF, FaSSGF); format: physicochemical; details: FaSSIF, FeSSIF and FaSSGF, 37° C., 24 h, concentration tested 30 mg/ml
Experimental: At this stage ca. 1 g of each front-runner salt form was prepared. Salt forms that offered significant solubility and stability advantages over the non-ionized API were prioritized. […] Scale Up
The solubility of the salts below was determined in FaSSIF, FeSSIF and FaSSGF by reference to the calibration curve of amorphous compound 1.
Separate portions of compound 1 were weighed out into aluminum boats and were charged to the relevant volumetric flasks. Solutions were made to volume with 1 to 1 (v/v) acetonitrile/purified water to give calibrants of known API concentrations and analyzed by HPLC, suitable to determine the concentration of compound 1 free base in the SIF buffer solubility study.
Each sample (150 mg) was suspended in the relevant SIF buffer (5.0 ml), to give a concentration of 30 mg/ml and maintain at 37° C. for 24 h. The pH was adjusted using 1 M HCl or 1 M NaOH, to ensure that the suspension remains in range.
Sample (1 ml) of the well-stirred representative suspensions was obtained at 1 h, 3 h, 6 h and 24 h and the pH was recorded. The pH of the bulk suspension was re-adjusted when necessary. The obtained sample from each vial was centrifuged, and the supernatant was analysed by HPLC (note, the analyte was diluted, when outside of the calibration range); XRPD analysis was performed on the wet sample pellet for evidence of form change, as well as on the oven-dried pellet (undervacuum at 40° C.).

[3] = format: physicochemical; details: 10 days; listed as compound 1·HCl (Form A)
Experimental: Equilibrium Humidity Evaluation (40° C./75% RH for 10 Days)
100 mg portions of compound 1 salts (for inputs see table below) were placed in the relevant open vials. The powders were finely divided and distributed evenly over the base of the vial, such that equal material coverage across the panel was observed. These samples were then maintained 40°C. under 75% RH. The samples were sub-sampled at intervals of 5 and 10 days and analysed by ^1H NMR, HPLC, XRPD, DSC, TGA and PLM, for evidence of phase change or chemical degradation (FIG. 269-297).

[4] = Equilibrium humidity evaluation of crystalline compound 1 HCl Form A (95% RH/20° C.); format: physicochemical; details: for XRPD (t = 0) / XRPD (t = 5 d) / XRPD (t = 10 d): 95% RH @ 20° C.; for DSC onset / XRPD: t = 10 days, 95 % RH @ 20° C.
Experimental: The stability of crystalline compound 1 HCl Form A was evaluated. Absorbent compound 1·Cl (Form A), (100 mg) was maintained, open-capped at 95% RH/20° C. and monitored at t=0, t=5 d and t=10 d, time points.
While absorbent Compound 1 HCl Form A), (100 mg) was placed open-capped inside double, cable-tied, electrostatic polythene bags (to mimic a typical packaging configuration) and placed inside the same humidity chamber at 95% RH at 20° C. and monitored at t=0, t=5 d and t=10 d time points. Stability of compound 1·HCl (Form A) at 40° C./75% RH was examined as part of the salt screen, and was stable over 10 d.

[5] = Amorphous forms and thermal study (glass temperature Tg by DSC/TGA); format: physicochemical
[6] = Heat-up/cool-down crystallization screen of Compound 1 HCl
Experimental: A heat up/cool down crystallization screen was performed. An compound 1 HCl Form A was used as input material. […]

[7] = Double polyethylene bagged, open vial
[8] = 2-Propanol 3.0 vol + Water 75 μl
[9] = Chlorobenzene 3.0 vol + MeOH 175 μl
[10] = Ethyl formate 3.0 vol + MeOH 225 μl
[11] = Isopropyl acetate 3.0 vol + IPA 3725 μl
[12] = Nitromethane 3.0 vol + MeOH 50 μl

## COc1ccc2c(ccn2C[C@@H](C)N(C)C)c1.Cl [Crystalline compound 1 HCl Form A]
[1]; listed as Compound 1·HCl Form A
  DVS isotherm type / hygroscopicity: slightly hygroscopic
[1]; listed as crystalline compound 1 HCl Form A
  DVS isotherm type / hygroscopicity: Slightly hygroscopic
[1]; desorption step, dm/dt <0.002%
  DVS mass change at 0.0% RH: 0.0239%
  DVS mass change at 5.0% RH: 0.0344%
  DVS mass change at 10.0% RH: 0.0455%
  DVS mass change at 15.0% RH: 0.0547%
  DVS mass change at 20.0% RH: 0.0648%
  DVS mass change at 25.0% RH: 0.0714%
  DVS mass change at 30.0% RH: 0.0860%
  DVS mass change at 40.0% RH: 0.0968%
  DVS mass change at 50.0% RH: 0.1367%
  DVS mass change at 60.0% RH: 0.1671%
  DVS mass change at 70.0% RH: 0.2211%
  DVS mass change at 80.0% RH: 0.2935%
[1]; during desorption, listed as crystalline compound 1 HCl Form A
  DVS desorption behaviour (hysteresis): held on to a little water at 0% RH
[1]; sorption step, dm/dt <0.002%
  DVS mass change at 0.0% RH: DVS 0 to 90 to 0% RH (dm/dt <0.002%): 0.0 (0.0011%), 5.0
  DVS mass change at 5.0% RH: 0.0078%
  DVS mass change at 10.0% RH: 0.0161%
  DVS mass change at 15.0% RH: 0.0248%
  DVS mass change at 20.0% RH: 0.0329%
  DVS mass change at 25.0% RH: 0.0379%
  DVS mass change at 30.0% RH: 0.0462%
  DVS mass change at 40.0% RH: 0.0659%
  DVS mass change at 50.0% RH: 0.0961%
  DVS mass change at 60.0% RH: 0.1388%
  DVS mass change at 70.0% RH: 0.1902%
  DVS mass change at 80.0% RH: 0.2647%
  DVS mass change at 90.0% RH: 0.4599%
[2]
  Solubility in SIF buffers: Solubility in SIF buffers: Soluble in all SIF buffers at 37 °C during 24 h.
[3]
  Stability at 40° C./75% RH: stable
[4]; 20° C./95% RH, open-capped and double bagged vials, 10-day period
  Water uptake by TG analyses: did not show any water uptake

## COc1ccc2c(ccn2C[C@@H](C)N(C)C)c1.Cl [amorphous compound 1 HCl]
[5]; 206.7° C., comment: De-solvation
  TGA % Δwt.: −18.2%,
[5]; DSC thermal event Tg
  DSC measurements, Endset: 48.35 °C
  DSC measurements, Integral: −2.2 Jg^−1
  DSC measurements, Onset: 37.07 °C
  DSC measurements, Peak: 43.00 °C
[5]; heated up past the melt event on a hot stage microscope
  Form Assignment: Amorphous

## COc1ccc2c(ccn2C[C@@H](C)N(C)C)c1.Cl [compound 1 HCl Form A]
[4]; [7]
  XRPD (t = 0): Form A
  XRPD (t = 5 d): Form A
  XRPD (t = 10 d): Form A
  DSC onset: 203.7 °C
  XRPD: Form A
[4]; Open vial
  XRPD (t = 0): Form A
  XRPD (t = 5 d): Form A
  XRPD (t = 10 d): Form A
  DSC onset: 204.4 °C
  XRPD: Form A
[6]; [8]
  Observations (t = -, T = 70° C.): Pink solution
  XRPD (moist pellet): Form A
  XRPD (oven dried): Form A
[6]; Acetone 3.0 vol + Water 50 μl
  Observations (t = -, T = 70° C.): Pink solution
  XRPD (moist pellet): Form A
  XRPD (oven dried): Form A
[6]; [9]
  Observations (t = -, T = 70° C.): Pink solution
  XRPD (moist pellet): Form A
  XRPD (oven dried): Form A
[6]; DCM 3.0 vol + MeOH 125 μl
  Observations (t = -, T = 70° C.): Pink solution
  XRPD (moist pellet): Form A
  XRPD (oven dried): Form A
[6]; EtOAc 3.0 vol + EtOH 1375 μl
  Observations (t = -, T = 70° C.): Pink solution
  XRPD (moist pellet): Form A
  XRPD (oven dried): Form A
[6]; EtOH 3.0 vol + Water 50 μl
  Observations (t = -, T = 70° C.): Pink solution
  XRPD (moist pellet): Form A
  XRPD (oven dried): Form A
[6]; [10]
  Observations (t = -, T = 70° C.): Pink solution
  XRPD (moist pellet): Form A
  XRPD (oven dried): Form A
[6]; [11]
  Observations (t = -, T = 70° C.): Suspension
  XRPD (moist pellet): Form A
  XRPD (oven dried): Form A
[6]; MEK 3.0 vol + Water 50 μl
  Observations (t = -, T = 70° C.): Pink solution
  XRPD (moist pellet): Form A
  XRPD (oven dried): Form A
[6]; MeCN 3.0 vol + Water 25 μl
  Observations (t = -, T = 70° C.): Pink solution
  XRPD (oven dried): Form A
[6]; MeOH 3.0 vol + water 25 μl
  Observations (t = -, T = 70° C.): Pink solution
  XRPD (moist pellet): Form A
  XRPD (oven dried): Form A
[6]; MeTHF 3.0 vol + MeOH 425 μl
  Observations (t = -, T = 70° C.): Pink solution
  XRPD (moist pellet): Form A
  XRPD (oven dried): Form A
[6]; Methyl acetate 3.0 vol + Water 75 μl
  Observations (t = -, T = 70° C.): Pink solution
[6]; [12]
  Observations (t = -, T = 70° C.): Pink solution
  XRPD (moist pellet): Form A
  XRPD (oven dried): Form A
[6]; TBME 3.0 vol + MeOH 425 μl
  Observations (t = -, T = 70° C.): Pink solution
  XRPD (moist pellet): Form A
  XRPD (oven dried): Form A
[6]; THE 3.0 vol + Water 50 μl
  Observations (t = -, T = 70° C.): Pink solution
  XRPD (moist pellet): Form A
  XRPD (oven dried): Form A
[6]; Toluene 3.0 vol + MeOH 200 μl
  Observations (t = -, T = 70° C.): Pink solution
  XRPD (moist pellet): Form A
  XRPD (oven dried): Form A
[6]; Water 3.0 vol, no co-solvent
  Observations (t = -, T = 70° C.): Pink solution
